Test [1] deals with partial urethra obstruction model in guinea pigs. The experiment in a line: Dysuria pathological model: partial urethra obstruction model, cystometry. As to conditions: guinea pig, i.v. It is filed as in vivo, Hartley female guinea pigs. The method, then:
Three-four weeks old Hartley female guinea pigs (Japan SLC, Inc.) were given celiotomy under anesthesia with pentobarbital (30 mg/kg i.p.) and in their urethra to the peripheral side by 1-2 mm from the bladder neck, each a polyethylene tube of 1.4 mm in width and 2.0 mm in inner diameter was placed. After closing the wound, the guinea pigs were bred for at least 3 weeks to produce partial urethra obstruction model in guinea pigs in which occurrence of intravesical pressure rise not accompanied by micturition (uninhibited contraction) and residual urine were observed.
The model was catheterized under anesthesia with urethane (1 g/kg i.p.) at the apex of urinary bladder and right jugular vein for cystometrography and intravenous administration, respectively. The other end of the bladder catheter was connected to a pressure transducer and infusion pump via a three way stop-cock, and physiological saline was continuously infused into the bladder through the infusion pump at a rate of 0.4 mL/min to induce micturition reflex. Immediately after the micturition reflex was induced, infusion of physiological saline into the bladder was stopped. The intravesical pressure at the time the micturition reflex was induced was measured with the pressure transducer, and the obtained cystometrogram was recorded with pen recorder. The urine voided was collected with disposable type weighing dish and its weight was measured. Further the physiological saline remained in the bladder was sucked with syringe via the bladder catheter and the residual urine volume was measured. The operations of suspending the infusion of physiological saline upon induction of micturition reflex, and about 1 minute thereafter resuming the infusion of physiological saline to induce micturition reflex were repeated plural times (generally 4 times) to stabilize the micturition reflex.
After stabilizing the micturition reflex, a compound solution (prepared by dissolving the compound or methanesulfonic acid salt thereof in DMSO and diluting it with physiological saline or distilled water) or physiological saline was administered into the vein at a volume of 10 mL/kg over 4 minutes, and simultaneously the above-described micturition reflex operations were repeated until 30 minutes passed after initiation of the administration, while measuring the intravesical pressure and the volumes of micturition and residual urine. Also the frequency of uninhibited contraction occurrence during the above-described operations was recorded.

The target in test [2] is T1, human recombinant PDE5 protein (Homo sapiens, UniProt O76074).
T1 construct: made in house; host or cells: COS-1 cells, transient transfection with pcDNA 3.1 (+); supernatant of the homogenate, not purified
The experiment in a line: Measurement of PDE5-inhibiting activity. It is filed as biochemical. As to conditions: Tables A and C; read-out: Inhibiting Activity (IC50 value) PDE5. The method, then:
PCR condition: [94° C., 2 min]×1 cycle, [(94° C., 30 sec), (65° C., 30 sec), (68° C., 3 min)]×25 cycles, [68° C., 6 min]×1 cycle
Thus obtained hsPDE5A1 fragment was given a restricted enzymatic treatment with XBaI and EcoRI, and thereafter inserted into pcDNA 3.1 (+) expression vector (Invitrogen) to let it serve as a human PDE5 expression vector.
Human PDE5 expression vector-transformed Escherichia coli was mass incubated to produce a large amount of human PDE5 expression vector, which was transiently transfected into COS-1 cells, with LIPOFECTAMINE 2000 Reagent (GIBCO). The cells were homogenized in ice-cooled buffer A and centrifuged at 4° C., 14,000×g for 10 minutes. The supernatant was isolated to provide human recombinant PDE5 protein solution.

Test [3] addresses T2, human recombinant PDE9 protein (Homo sapiens, UniProt O76083).
T2 construct: made in house; host or cells: COS-1 cells, transient transfection with pcDNA 3.1 (+); supernatant of the homogenate, not purified
The experiment in a line: Measurement of PDE9-inhibiting activity ([3H]-cGMP hydrolysis). It is filed as biochemical. To be noted: Tables A and C; read-out: Inhibiting Activity (IC50 value) PDE9. The protocol: Based on the base sequence of hsPDE9A1 registered with GenBank database (accession No.: AF048837), hsPDE9A1 fragment was amplified by polymerase chain reaction under the following conditions, using the following sequence (Amasham Pharmacia Biotech) as the primer and Human Prostate […] cDNA library (CLONTECH) as the template DNA, with Pfu Turbo DNA polymerase ([…]):
PCR condition: [95° C., 5 min]×1 cycle, [(95° C., 1 min), (58° C., 2 min), (72° C., 3 min)]×25 cycles, [72° C., 10 min]×1 cycle
Thus obtained hsPDE9A1 fragment was given a restricted enzymatic treatment with NheI and NotI, and thereafter inserted into pcDNA 3.1 (+) expression vector (Invitrogen) to let it serve as a human PDE9 expression vector.
Human PDE9 expression vector-transformed Escherichia coli was mass incubated to produce a large amount of human PDE9 expression vector, which was transiently transfected into COS-1 cells, with LIPOFECTAMINE 2000 Reagent (GIBCO). The cells were homogenized in ice-cooled buffer A (40 mmol/L Tris-HCl, pH7.5, 15 mmol/L benzamidine, 15 mmol/L 2-mercaptoethanol, 1 μg/mL Pepstatin A, 1 μg/mL Leupeptin, 5 mmol/L EDTA) and centrifuged at 4° C., 14,000×g for 10 minutes. The supernatant was isolated to provide human recombinant PDE9 protein solution.
This mixed solution was incubated at 30° C. for 30 minutes and the enzymatic reaction of PDE9 was terminated by heating the system in boiling water for 90 seconds. Returning the system to room temperature, 50 μL of Snake venom (SIGMA: 1 mg/mL) was added, followed by 10 minutes' incubation at 30° C., to convert the [^3H]-5′-GMP produced in the previous reaction to [^3H]-guanosine. […] Thereafter [^3H]-guanosine was eluted with 3 mL of 3 mol/L aqueous ammonia and its radiation activity was measured with liquid scintillation counter.
PDE9 inhibition of the tested compound can be calculated by the following formula: […]
From the percent inhibition at various concentration levels of each tested compound, its IC50 value against PDE9 can be determined.

What is called IC50 is the concentration needed to halve the response being measured.

T2 sequence (O76083 whole entry): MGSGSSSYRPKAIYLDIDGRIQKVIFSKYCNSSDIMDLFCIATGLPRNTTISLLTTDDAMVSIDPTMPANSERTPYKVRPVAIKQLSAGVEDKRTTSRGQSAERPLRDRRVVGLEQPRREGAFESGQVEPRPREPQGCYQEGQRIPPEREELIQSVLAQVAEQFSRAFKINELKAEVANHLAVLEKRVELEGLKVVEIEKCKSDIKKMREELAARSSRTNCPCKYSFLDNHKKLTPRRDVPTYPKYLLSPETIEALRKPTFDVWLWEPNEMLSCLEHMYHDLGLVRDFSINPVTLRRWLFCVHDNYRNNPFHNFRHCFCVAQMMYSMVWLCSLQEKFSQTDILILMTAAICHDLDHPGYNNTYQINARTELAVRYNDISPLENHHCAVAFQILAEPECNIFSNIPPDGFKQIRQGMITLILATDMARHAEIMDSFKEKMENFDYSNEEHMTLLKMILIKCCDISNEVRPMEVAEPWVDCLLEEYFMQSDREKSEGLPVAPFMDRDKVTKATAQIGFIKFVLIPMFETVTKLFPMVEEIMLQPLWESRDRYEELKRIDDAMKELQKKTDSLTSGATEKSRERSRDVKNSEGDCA

For the compound `Cc1c(C(=O)O)sc2nc(Cc3cccs3)[nH]c(=O)c12` [A-2, 5-Methyl-4-oxo-2-(thiophen-2-ylmethyl)-3,4-dihydrothieno-[2,3-d]pyrimidine-6-carboxylic acid], in test [1] (1 mg/kg), the “Frequency of occurrence of uninhibited contraction after administration” value came to 0.47 times/min, the “Frequency of occurrence of uninhibited contraction volume change” value is −0.44 times/min, the “Residual urine volume after administration” value was 1.23 mL and the “Residual urine volume volume change” value is -0.04 mL. In addition, in test [1] (10 mg/kg), the “Frequency of occurrence of uninhibited contraction after administration” value is 0.78 times/min, the “Frequency of occurrence of uninhibited contraction volume change” value is −0.13 times/min, the “Residual urine volume after administration” value was 1.02 mL and the “Residual urine volume volume change” value was -0.25 mL. In addition, the IC50 in test [2] came out at 21.1 µM. Further, the concentration for half-maximal inhibition (IC50) in test [3] amounted to 0.04 µM.

On to `O=C(O)c1cc2c(=O)[nH]c(CC3=CCCC3)nc2s1` [A-21, 2-(Cyclopent-1-enylmethyl)-4-oxo-3,4-dihydrothieno[2,3-d]-pyrimidine-6-carboxylic acid], for which, in test [1] (0.3 mg/kg), the “Frequency of occurrence of uninhibited contraction after administration” value amounted to 0.55 times/min, the “Frequency of occurrence of uninhibited contraction volume change” value is −0.53 times/min, the “Residual urine volume after administration” value is recorded as 1.02 mL and the “Residual urine volume volume change” value was -0.52 mL. Also, in test [1] (3 mg/kg), the “Frequency of occurrence of uninhibited contraction after administration” value is 0.78 times/min, the “Frequency of occurrence of uninhibited contraction volume change” value was −0.66 times/min, the “Residual urine volume after administration” value amounted to 0.88 mL and the “Residual urine volume volume change” value is -0.49 mL. For the same compound, in test [1] (10 mg/kg), the “Frequency of occurrence of uninhibited contraction after administration” value was 0.83 times/min, the “Frequency of occurrence of uninhibited contraction volume change” value is listed as −0.74 times/min, the “Residual urine volume after administration” value is 0.62 mL and the “Residual urine volume volume change” value was -1.06 mL. Besides, in test [2], the IC50 came to 12.1 µM. In addition, the concentration for half-maximal inhibition (IC50) in test [3] was determined as 0.022 µM.

`Cc1c(C(=O)O)sc2nc(Cc3cccc(Cl)c3)[nH]c(=S)c12` [A-26, 2-(3-Chlorobenzyl)-5-methyl-4-thioxo-3,4-dihydrothieno-[2,3-d]pyrimidine-6-carboxylic acid]: in test [1] (0.3 mg/kg), the “Frequency of occurrence of uninhibited contraction after administration” value was found to be 1.02 times/min, the “Frequency of occurrence of uninhibited contraction volume change” value is given as −0.10 times/min, the “Residual urine volume after administration” value came to 0.91 mL and the “Residual urine volume volume change” value is -0.11 mL. Further, in test [1] (3 mg/kg), the “Frequency of occurrence of uninhibited contraction after administration” value worked out at 0.76 times/min, the “Frequency of occurrence of uninhibited contraction volume change” value is −0.36 times/min, the “Residual urine volume after administration” value was found to be 0.27 mL and the “Residual urine volume volume change” value is -0.75 mL. For the same compound, in test [1] (10 mg/kg), the “Frequency of occurrence of uninhibited contraction after administration” value came out at 0.59 times/min, the “Frequency of occurrence of uninhibited contraction volume change” value is recorded as −0.53 times/min, the “Residual urine volume after administration” value came out at 0.48 mL and the “Residual urine volume volume change” value is -0.54 mL. For the same compound, the IC50 in test [2] was found to be 1.11 µM. Besides, the IC50 in test [3] was found to be 0.005 µM.

Take `Cc1c(C(=O)O)sc2nc(Cc3ccc(Cl)c(Cl)c3)[nH]c(=O)c12` [A-7, 2-(3,4-Dichlorobenzyl)-5-methyl-4-oxo-3,4-dihydrothieno-[2,3-d]pyrimidine-6-carboxylic acid]: the “Frequency of occurrence of uninhibited contraction after administration” value in test [1] (1 mg/kg) was found to be 0.79 times/min; in test [1] (3 mg/kg), 0.77 times/min; in test [1] (10 mg/kg), 0.64 times/min. Besides, the “Frequency of occurrence of uninhibited contraction volume change” value in test [1] (1 mg/kg) is on record as −0.17 times/min; in test [1] (3 mg/kg), −0.39 times/min; in test [1] (10 mg/kg), −0.47 times/min. The results for the “Residual urine volume after administration” value in test [1] (1 mg/kg), in test [1] (3 mg/kg) and in test [1] (10 mg/kg) were 0.86 mL, 1.03 mL and 0.64 mL, respectively. The “Residual urine volume volume change” value in test [1] (1 mg/kg) is “+0.04 mL”; in test [1] (3 mg/kg), -0.30 mL; in test [1] (10 mg/kg) it was -0.42 mL. Further, the half-maximal inhibitory concentration (IC50) in test [2] came out at 0.915 µM; in test [3], 0.038 µM.

Consider `Cc1c(C(=O)O)sc2nc(Cc3cccc(Cl)c3)[nH]c(=O)c12` [A-4, 2-(3-Chlorobenzyl)-5-methyl-4-oxo-3,4-dihydrothieno[2,3-d]-pyrimidine-6-carboxylic acid], for which the “Frequency of occurrence of uninhibited contraction after administration” value in test [1] (0.3 mg/kg) is 0.80 times/min; in test [1] (3 mg/kg), 0.49 times/min; in test [1] (10 mg/kg) it was 0.60 times/min. The “Frequency of occurrence of uninhibited contraction volume change” value in test [1] (0.3 mg/kg) is reported as −0.36 times/min; in test [1] (3 mg/kg), −0.67 times/min; in test [1] (10 mg/kg), −0.56 times/min. The entries for the “Residual urine volume after administration” value in test [1] (0.3 mg/kg), in test [1] (3 mg/kg) and in test [1] (10 mg/kg) were 1.08 mL, 1.11 mL and 0.95 mL, respectively. Also, the “Residual urine volume volume change” value is on record as “+0.13 mL” in test [1] (0.3 mg/kg), “+0.16 mL” in test [1] (3 mg/kg) and 0.00 mL in test [1] (10 mg/kg). The 50% inhibitory concentration (IC50) in test [2] worked out at 6.77 µM; in test [3] it was 0.03 µM.

(Values after US20100113484A1, “TREATING AGENT OF UROPATHY” (ASKA PHARMACEUTICAL CO., LTD., priority 2006, published 2010).)
